Source: publication PMC11311842, “Radiosynthesis and Preclinical Evaluation of ^18F-Labeled Estradiol Derivatives with Different Lipophilicity for PET Imaging of Breast Cancer” (Cancers, 2024)
“Also recorded” adds a separate entry of the source.

Experiments:
[1] = tested on: T47D (ER+) and MDA-MB-231 (ER-) tumor-bearing nude mice; experiment: Biodistribution in tumor-bearing nude mice; assay type: in vivo
Method: (§1) Female NMRI nude mice (Crl:NMRI-Foxn1^nu) were purchased from Charles River (Charles River Laboratories Inc., Wilmington, MA, USA) at the age of four weeks and kept in groups of four to five animals in individually ventilated cages in a twelve hours dark/light cycle, with unlimited access to water and standard chow. At the age of nine to ten weeks, one 17β-estradiol pellet per animal (0.72 mg per pellet, 3 mm diameter) with a 60-day release time (Innovative Research of America, Sarasota, FL, USA) was subcutaneously implanted on the back under isoflurane anesthesia. After three days, approximately 2–3 × 10^6 MCF-7, T47D or MDA-MB-231 tumor cells (in 50 µL PBS) were mixed with Matrigel (50 µL, BD Biosciences, Becton, Dickinson and Company, Franklin Lakes, NJ, USA) and injected subcutaneously to the back of the mice. Tumor diameters and weight of the animals were recorded five times a week. Biodistribution or imaging studies were performed three–four weeks after the inoculation of the cells.
For biodistribution experiments, nude mice bearing T47D and MDA-MB-231 tumors (n = 3, per group) were injected with ^18F-TA-Glyco-EE (2–4 MBq) under isoflurane anesthesia. After 30, 60 or 90 min, the mice were sacrificed by cervical dislocation. Blood, as well as organs and tissue from the lung, liver, kidneys, heart, spleen, brain, muscle, femur and tumors, were harvested and measured for radioactivity in the γ-counter (Wallac Wizard, PerkinElmer, Waltham, MA, USA). The samples were weighed, and the radioactivity of each tissue sample was calculated as a percentage of the total injected dose per gram tissue (%ID/g).

ER+ MCF-7 cells = experiment: Cellular uptake assay in ER+ cells; assay type: cell-based, human
Method: One day prior to the experiment, MCF-7 and MDA-MB-231 cells were seeded in 24-well plates (350,000 cells/well). The cells were washed once with cell medium. The cells were incubated with the respective radiotracer in cell medium (510 µL) for 10, 20, 30, 60, 90, 120 min at 37 °C in the absence and presence of estradiol (E2, final concentration of 72 µM). After incubation, the plates were set on ice and washed with ice-cold PBS twice, following cell lysis and detachment with NaOH (0.1 M, 750 µL, 37 °C). The cells were transferred to counting tubes, and the radioactivity was measured using a γ-counter (Wallac Wizard, PerkinElmer, Waltham, MA, USA). The protein concentration of each well was determined in duplicate using Bradford reagent (Bio-Rad Laboratories GmbH, Feldkirchen, Germany). The cellular uptake assay was performed in 2–4 independent experiments, each performed in quadruplicate for each time point.

[2] = tested on: ER- MDA-MB-231 tumor slices; experiment: In vitro autoradiography of MDA-MB-231 tumor slices; assay type: binding, human; conditions: 60 min, room temperature, with or without E2 (72 µM)
Method: MCF-7, MDA-MB231 and T47D tumors grown in nude mice were collected and frozen in a hexane/dry ice bath (−70 °C). Tumor slices (14 µm) were prepared on a cryostat microtome HM 500 O (Microm, Walldorf, Germany), thaw-mounted on HistoBond® adhesive glass slides (Marienfeld, Lauda-Königshofen, Germany) and stored at −80 °C. For in vitro autoradiography studies, the tumor tissue sections were thawed and pre-incubated in incubation buffer (50 mM Tris HCl, 5 mM MgCl2, 0.2% bovine serum albumin (BSA), pH 7.4) at room temperature for 15 min. Then, the sections were transferred to incubation buffer containing ^18F-TA-Glyco-EE (3–5 MBq) in a total volume of 70 mL. For the determination of non-specific binding, separate sections were incubated with ^18F-TA-Glyco-EE in the presence of E2 (72 µM). After an incubation time of 60 min, the sections were washed three times with incubation buffer, followed by a short dip in ice-cold distilled water. The slices were carefully dried in a stream of warm air and finally placed on a phosphor imager screen (Fuji Imaging Plate BAS-IP SR 2025 E) overnight prior to readout (30 µm resolution) using the HD-CR-35 Bio scanner (Elysia-Raytest, Straubenhardt, Germany). […] Regions of interest were analyzed from 3–4 tumor slices from the MCF-7, MDA-MB231 and T47D tumors, and mean values of the intensity per area were calculated.

[3] = tested on: MCF-7 (ER+) tumor-bearing nude mice; experiment: Small animal PET imaging; assay type: in vivo
Method: as §1, with “cells. […] Dynamic images were acquired for 60 min, starting with the injection of the radiotracer. […] Regions of interest (ROIs) were drawn over the tumor, and the mean radioactivity concentration within these regions was obtained from the mean values and calculated as a percentage of the total injected dose per gram tissue (%ID/g).” for “cells.”

For `CC(=O)OC1C(C[18F])OC(n2cc(C3(O)CCC4C5CCc6cc(O)ccc6C5CCC43C)nn2)C(OC(C)=O)C1OC(C)=O` (centres unmarked) [^18F-TA-Glyco-EE], the “Uptake in MDA-MB-231 tumors” value ([1]; 30 min p.i.) was 0.9 %ID/g, the “Uptake in T47D tumors” value ([1]; 30 min p.i.) was 1.0 %ID/g and the Uptake in intestine ([1]; 30 min p.i.) was 10 %ID/g. For the same molecule, the Uptake in liver ([1]; 30 min p.i.) was 13 %ID/g, the “Tumor uptake ER+ T47D versus ER- MDA-MB-231” value ([1]; 60 min and 90 min p.i., multiple t-test) was “statistically significant differences” and the Uptake in liver ([1]; 90 min p.i.) was 1.2 %ID/g. For the same molecule, the “Uptake in blood and all other non-target organs” value ([1]; all time points (30, 60, 90 min p.i.)) was “low”, the “Uptake in T47D or MDA-MB-231 tumors” value ([1]; as summarised in the discussion) was less than 1 %ID/g and the “Uptake in liver and intestine” value ([1]; decreasing over 90 min) was “less than 3 %ID/g”. The “Cellular uptake relative to ^18F-PEG-EE and ^18F-Glyco-EE” value (ER+ MCF-7 cells; ER+ MCF-7 cells) was 10 fold, the “Cellular uptake in MCF-7 cells” value (ER+ MCF-7 cells; after 60 min, 37 °C, absence of E2) was 270 %/mg and the “Binding to MDA-MB-231 tumor sections (autoradiography)” value [2] was “negligible binding”. The “Uptake in MCF-7 tumors (PET)” value ([3]; 60 min p.i.) was “around 1 %ID/g” and the “Tumor uptake, non-treated versus fulvestrant-treated animals (PET)” value ([3]; fulvestrant 0.5 mg s.c., second scan 48 h later, n = 4) was “significantly reduced tumor uptake on PET scans in one of the four animals; also recorded: did not show a significant difference”.
